What was measured:
AMARE [1] = assay: Pre-emergence herbicidal action against AMARE; assay type: in vivo, Amaranthus retroflexus; settings: scored visually after about 3 weeks vs untreated controls; for Pre-emergence action against AMARE in %: 1280 g/ha; for Pre-emergence action at 320 g/ha against AMARE in %: 100% = plants have died, 0% = like control plants
Procedure, shortened: (§1)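 Visual percent activity (100% = plants dead, 0% = like control) scored about 3 weeks after pre-emergence treatment in greenhouse. Compounds as WP or EC, applied to covering soil surface with 0.5% additive, 600 L/ha water, at 1280 or 320 g/ha.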

harmful plants = assay: Pre-emergence herbicidal action, summary of Tables 4.1-4.15; assay type: in vivo; settings: result in words
Text: (§2) Seeds of mono- and dicotyledonous weed plants are placed in plastic pots in sandy loam soil (doubly sown with one species each of mono- or dicotyledonous weed plants per pot) and covered with soil. The compounds of the invention, formulated in the form of wettable powders (WP) or as emulsion concentrates (EC), are then applied onto the surface of the covering soil as aqueous suspension or emulsion with addition of 0.5% additive at a water application rate equivalent to 600 litres per hectare. After the treatment, the pots are placed in a greenhouse and kept under good growth conditions for the trial plants. After about 3 weeks, the effect of the preparations is scored visually in comparison with untreated controls as percentages. For example, 100% activity=the plants have died, 0% activity=like control plants.
Tables 4.1-4.15 below show the effects of selected compounds of the general formula (I) according to Tables 1 to 3 on various harmful plants at an application rate corresponding to 1280 or 320 g/ha, which have been obtained by the aforementioned experimental method.
For example, compounds no. I-008, I-056, I-057, I-061, I-067, I-070 and I-072 applied by the pre-emergence method have very good action (80% to 100% herbicidal action) against harmful plants such as Alopecurus myosuroides, Amaranthus retroflexus, Matricaria inodora, Polygonum convolvulus, Setaria viridis and Stellaria media at an application rate of 1.28 kg of active substance or less per hectare.

SETVI [2] = assay: Pre-emergence herbicidal action against SETVI; assay type: in vivo, Setaria viridis; settings: 1280 g/ha, scored visually after about 3 weeks vs untreated controls
Procedure, shortened: as §1

STEME [3] = assay: Post-emergence herbicidal action against STEME; assay type: in vivo, Stellaria media; settings: visual rating about 3 weeks after treatment
Procedure, shortened: (§3)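 Applied post-emergence at 1280 or 320 g/ha to one-leaf-stage weeds grown in sandy loam, using WP or EC formulations in water (600 litres per hectare, 0.5% additive). Efficacy is scored visually relative to untreated plants about 3 weeks later, 0% meaning no effect and 100% plant death.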

STEME [4] = assay: Pre-emergence herbicidal action against STEME; assay type: in vivo, Stellaria media; settings: scored visually after about 3 weeks vs untreated controls
Procedure, shortened: as §1

ECHCG [5] = assay: Pre-emergence herbicidal action against ECHCG; assay type: in vivo, Echinochloa crus-galli; settings: scored visually after about 3 weeks vs untreated controls, 100% = plants have died, 0% = like control plants
Procedure, shortened: as §1

MATIN [6] = assay: Post-emergence herbicidal action against MATIN; assay type: in vivo, Matricaria inodora; settings: 1280 g/ha, visual rating about 3 weeks after treatment
Procedure, shortened: as §3

ECHCG [7] = assay: Post-emergence herbicidal action against ECHCG; assay type: in vivo, Echinochloa crus-galli; settings: 1280 g/ha, post-emergence at one-leaf stage, rated visually after about 3 weeks vs untreated controls
Procedure, shortened: as §3

AMARE [8] = assay: Post-emergence herbicidal action against AMARE; assay type: in vivo, Amaranthus retroflexus; settings: visual rating about 3 weeks after treatment
Procedure, shortened: as §3

SETVI [9] = assay: Post-emergence herbicidal action against SETVI; assay type: in vivo, Setaria viridis; settings: 1280 g/ha, post-emergence at one-leaf stage, rated visually after about 3 weeks vs untreated controls
Procedure, shortened: as §3

PHBPU = assay: Post-emergence herbicidal action against PHBPU; assay type: in vivo, Pharbitis purpurea; settings: 320 g/ha, visual rating about 3 weeks after treatment
Description: (§4) [table] Seeds of mono- and dicotyledonous weed plants are placed in plastic pots in sandy loam soil (twin sowing with one species each of mono- or dicotyledonous weed plants per pot), covered with soil and cultivated in a greenhouse under controlled growth conditions. 2 to 3 weeks after sowing, the test plants are treated at the one-leaf stage. The compounds of the invention, formulated in the form of wettable powders (WP) or as emulsion concentrates (EC), are applied to the green parts of the plants as aqueous suspension or emulsion with addition of 0.5% additive at a water application rate equivalent to 600 litres per hectare. After the test plants have been kept in the greenhouse under optimum growth conditions for about 3 weeks, the activity of the preparations is rated visually in comparison to untreated controls. For example, 100% activity=the plants have died, 0% activity=like control plants. Tables 5.1-5.16 below show the effects of selected compounds of the general formula (I) according to Tables 1 to 3 on various harmful plants at an application rate corresponding to 1280 or 320 g/ha, which have been obtained by the aforementioned experimental method.

VERPE [10] = assay: Post-emergence herbicidal action against VERPE; assay type: in vivo, Veronica persica; settings: 320 g/ha, visual rating about 3 weeks after treatment
Description: as §4

POLCO = assay: Pre-emergence herbicidal action against POLCO; assay type: in vivo, Polygonum convolvulus; settings: 320 g/ha, scored visually after about 3 weeks vs untreated controls
Text: as §2, with “control plants. [table] Tables 4.1-4.15 below show the effects of selected compounds of the general formula (I) according to Tables 1 to 3 on various harmful plants at an application rate corresponding to 1280 or 320 g/ha, which have been obtained by the aforementioned experimental method.” for “control plants.”

VERPE [11] = assay: Pre-emergence herbicidal action against VERPE; assay type: in vivo, Veronica persica; settings: 320 g/ha, scored visually after about 3 weeks vs untreated controls
Text: as §2, with “control plants. [table] Tables 4.1-4.15 below show the effects of selected compounds of the general formula (I) according to Tables 1 to 3 on various harmful plants at an application rate corresponding to 1280 or 320 g/ha, which have been obtained by the aforementioned experimental method.” for “control plants.”

MATIN [12] = assay: Pre-emergence herbicidal action against MATIN; assay type: in vivo, Matricaria inodora; settings: 1280 g/ha, scored visually after about 3 weeks vs untreated controls
Text: as §2, with “control plants. [table] Tables 4.1-4.15 below show the effects of selected compounds of the general formula (I) according to Tables 1 to 3 on various harmful plants at an application rate corresponding to 1280 or 320 g/ha, which have been obtained by the aforementioned experimental method.” for “control plants.”

VIOTR = assay: Post-emergence herbicidal action against VIOTR; assay type: in vivo, Viola tricolor; settings: 320 g/ha, visual rating about 3 weeks after treatment
Description: as §4

SMILES	Pre-emergence action against AMARE in % (AMARE [1]) [%]	herbicidal efficacy against harmful plants in the case of pre-emergence treatment (harmful plants)	Pre-emergence action against SETVI in % (SETVI [2]) [%]	Post-emergence action against STEME in % (STEME [3]; 1280 g/ha) [%]	Pre-emergence action against STEME in % (STEME [4]; 1280 g/ha) [%]	Pre-emergence action at 1280 g/ha against ECHCG in % (ECHCG [5]) [%]	Post-emergence action against MATIN in % (MATIN [6]) [%]	Post-emergence action against ECHCG in % (ECHCG [7]) [%]	Post-emergence action against AMARE in % (AMARE [8]; 1280 g/ha) [%]	Post-emergence action against SETVI in % (SETVI [9]) [%]	Pre-emergence action at 320 g/ha against AMARE in % (AMARE [1]) [%]	Post-emergence action against PHBPU in % (PHBPU) [%]	Post-emergence action against VERPE in % (VERPE [10]) [%]	Pre-emergence action against STEME in % (STEME [4]; 320 g/ha) [%]	Post-emergence action against AMARE in % (AMARE [8]; 320 g/ha) [%]	Pre-emergence action against POLCO in % (POLCO) [%]	Pre-emergence action against VERPE in % (VERPE [11]) [%]	Pre-emergence action against MATIN in % (MATIN [12]) [%]	Post-emergence action against VIOTR in % (VIOTR) [%]	Post-emergence action against STEME in % (STEME [3]; 320 g/ha) [%]
CC(Oc1nn(-c2ccccc2)c(-c2ccc(F)cc2)c1Br)C(=O)O (stereo not shown) [I-138, 2-{[4-Bromo-5-(4-fluorophenyl)-1-phenyl-1H-pyrazol-3-yl]oxy}propanoic acid]	100	good herbicidal efficacy	100	100	100	100	–	–	–	–	–	–	–	–	–	–	–	–	–	–
COC(=O)CNC(=O)COc1nn(-c2ccc(F)cc2)c(-c2cccc(F)c2)c1Cl [III-027]	100	good herbicidal efficacy	90	90	100	100	100	90	90	100	–	–	–	–	–	–	–	–	–	–
C=CCNC(=O)COc1nn(-c2ccccc2F)c(-c2ccccc2)c1Br [III-003]	100	good herbicidal efficacy	100	–	100	100	–	100	100	100	100	80	80	100	80	100	100	–	–	–
COC(=O)COc1nn(-c2cccc(Cl)c2)c(-c2ccc(F)c(F)c2)c1Cl [I-026]	80	–	–	–	–	–	–	–	80	–	–	90	–	–	–	–	–	90	80	–
O=C(O)COc1nn(-c2ccc(F)cc2)c(-c2cccc(F)c2)c1[N+](=O)[O-] [I-121]	90	good herbicidal efficacy	100	100	100	100	90	–	–	–	–	–	–	–	–	–	–	–	–	–
COC(=O)COc1nn(-c2ccc(Cl)cc2)c(-c2cccc(F)c2)c1C#N [I-048]	–	–	–	–	–	–	–	–	–	–	–	–	80	–	–	–	–	80	–	–
C=CCNC(=O)COc1nn(-c2ccccc2F)c(-c2ccc(F)c(F)c2)c1Br [III-053]	90	good herbicidal efficacy	100	100	100	100	90	100	–	100	–	–	–	–	–	–	–	–	–	–
COC(=O)COc1nn(-c2cccc(F)c2)c(-c2ccccc2)c1C#N [I-023]	90	–	–	80	–	–	80	–	80	–	90	80	–	–	–	–	90	100	80	80
NCc1ccccc1.O=C(O)COc1nn(-c2cccc(F)c2)c(-c2ccccc2)c1I [II-13]	100	good herbicidal efficacy	–	–	90	–	100	–	–	–	–	–	–	–	–	–	–	–	–	–
COC(=O)COc1nn(-c2cccc(F)c2)c(-c2ccccc2)c1Cl [I-016]	100	–	–	80	80	–	–	80	80	80	–	80	–	–	–	–	–	90	–	–
C=CCNC(=O)COc1nn(-c2ccc(F)cc2)c(-c2cccc(F)c2)c1Cl [III-022]	90	good herbicidal efficacy	100	100	100	100	–	90	90	100	–	–	–	–	–	–	–	–	–	–

Source: patent US20230066946A1, “1,5-DIPHENYLPYRAZOLYL-3-OXYALKYL ACIDS AND 1-PHENYL-5-THIENYLPYRAZOLYL-3-OXYALKYL ACIDS AND THE USE THEREOF FOR CONTROL OF UNWANTED PLANT GROWTH” (Bayer Aktiengesellschaft, priority 2019, published 2023)
